Reference: patent US20230404989A1, “GRK2 INHIBITION BY PAROXETINE AMELIORATES OSTEOARTHRITIS” (THE PENN STATE RESEARCH FOUNDATION, priority 2020, published 2023)

Tests used:
human OA cartilage [1] = assay: Ex vivo cultured human OA osteochondral plugs: IF staining and RT-qPCR; assay type: cell-based; details: paroxetine 5 μM or gallein 10 μM, 48 hrs
Text: An Institutional Review Board-approved protocol was executed to collect discarded de-identified cartilage from patients. For the experiment described in FIG. 3A, we obtained acutely injured human cartilage (from patients undergoing arthroscopic surgery 4 weeks following meniscal injury, N=6) and OA cartilage (from patients undergoing arthroplasty, N=6). Normal controls were obtained from amputees' knees (N=6). Cartilage was fixed in formalin then processed and embedded in paraffin, 5-μm sections were used for immunofluorescence (IF) staining. For the experiment described in FIG. 7, OA osteochondral tissue was collected from patients undergoing total knee arthroplasty. Osteochondral plugs (8-mm diameter) were obtained and bone was flushed with saline solution to remove all bone marrow and blood cells. Plugs were then cultured overnight in low glucose DMEM at 5% CO2 and 37° C. The next morning plugs were treated with either vehicle phosphate buffer saline (PBS), paroxetine (5 μM), or gallein (10 μM), and the drug-containing culture medium was replenished after 24 hrs. After 48 hrs, plugs were fixed for 7 days in 10% neutral buffered formalin (NBF), decalcified for 2 weeks in 10% w/v EDTA, embedded in paraffin, and […] were cut and mounted for histological and IF staining. Alternatively, the cartilage was shaved from plugs and flash-frozen in liquid nitrogen for RNA extraction as described below. mRNA was isolated from human cartilage using the method we published recently, yielding RNA Integrity Number (RIN) values above 7.0 (53). cDNA was prepared using Iscript cDNA synthesis kit from Bio-rad following the manufacturer's protocol. cDNAs were qPCR amplified using TaqMan Gene Expression Assays, with GAPDH as the house keeping gene (ThermoFisher Scientific; described in Table 2) and the 7500 Fast Real-Time PCR System (Applied Biosystems). Paraffin sections were deparaffinized in three changes of xylene for five minutes each, rehydrated in ethanol (two changes of 100% ethanol, followed by two changes of 95% ethanol, followed by one change of 70% ethanol) and rinsed twice in deionized water. Antigen retrieval was performed for 30 minutes at 37° C. using 0.4% pepsin (Sigma P-7000) in 0.1M hydrochloric acid (HCl) and was followed by permeabilization for 30 minutes at room temperature using Triton X in tris buffered saline (TBS). Sections were then blocked for 1 hour at room temperature in 10% normal goat serum in 1×TBS. Tissue sections were incubated overnight at 4° C. with the rabbit anti-mouse primary antibody specific for the target protein (detailed in Table 1).

human OA cartilage [2] = assay: Ex vivo cultured human OA osteochondral plugs: cAMP assay; assay type: cell-based; details: paroxetine 5 μM or gallein 10 μM, 48 hrs, versus vehicle
Text: An Institutional Review Board-approved protocol was executed to collect discarded de-identified cartilage from patients. For the experiment described in FIG. 3A, we obtained acutely injured human cartilage (from patients undergoing arthroscopic surgery 4 weeks following meniscal injury, N=6) and OA cartilage (from patients undergoing arthroplasty, N=6). Normal controls were obtained from amputees' knees (N=6). Cartilage was fixed in formalin then processed and embedded in paraffin, 5-μm sections were used for immunofluorescence (IF) staining. For the experiment described in FIG. 7, OA osteochondral tissue was collected from patients undergoing total knee arthroplasty. Osteochondral plugs (8-mm diameter) were obtained and bone was flushed with saline solution to remove all bone marrow and blood cells. […] Gas activity was measured by quantifying cAMP content in cartilage pooled from 3 mice. […] Frozen cartilage was pulverized using 500 μL lysis buffer as we have previously described (H. K. Le Bleu, Anal Biochem, 518, 134-138 (2017)). cAMP content was quantified using the Cyclic AMP XP Assay kit (Cell Signaling, #4339) and following manufacturer's protocol, with 0.5 mM IBMX added to the lysis buffer to prevent phosphodiesterase mediated cAMP degradation during the extraction process. cAMP levels in different groups were normalized to that of sham mice or the vehicle treated human cartilage.

[3] = tested on: Gas activity (cAMP content in cartilage); assay: cAMP assay in tibial articular cartilage of drug-treated DMM mice; assay type: in vivo, mouse
Experimental: Drug treatment studies: In twelve-week old male wild type C57BL/6 mice that received DMM surgeries, vehicle (PBS), paroxetine (5 mg/kg/day), fluoxetine (5 mg/kg/day), gallein (10 mg/kg/day) or indomethacin (2.5 mg/kg/day) were administered daily by ip injection. Drug treatment was initiated 8 weeks following DMM to determine the role of GRK2 signaling in the progression of OA. Short term drug treatment study: To evaluate the acute effect of drug treatments, GRK2^f/f mice received sham or DMM surgery followed by treatment with vehicle, paroxetine, gallein, fluoxetine, or indomethacin with the doses indicated above for 1 week beginning at 8 weeks post DMM. All mice were sacrificed 9 weeks post DMM, 21 weeks of age, for analysis of OA progression. Gas activity was measured by quantifying cAMP content in cartilage pooled from 3 mice. Tibial cartilage was dissected out and snap frozen in liquid Nitrogen. As positive control, tibial cartilage obtained from normal mice was treated with 0.5 mM 3-isobutyl-1-methylxanthine (IBMX) for 30 minutes, followed by 0.1 mM Forskolin for 15 minutes, then snap frozen in liquid Nitrogen. For human cartilage cAMP content, 70 mg frozen cartilage were used. Frozen cartilage was pulverized using 500 μL lysis buffer as we have previously described (H. K. Le Bleu, Anal Biochem, 518, 134-138 (2017)). cAMP content was quantified using the Cyclic AMP XP Assay kit (Cell Signaling, #4339) and following manufacturer's protocol, with 0.5 mM IBMX added to the lysis buffer to prevent phosphodiesterase mediated cAMP degradation during the extraction process. cAMP levels in different groups were normalized to that of sham mice or the vehicle treated human cartilage.

[4] = 7 days of drug treatment from 8 weeks post-DMM

Structure (SMILES) | ADAMTS5 mRNA expression (RT-qPCR) (human OA cartilage [1]) | ADAMTS5 protein expression (IF staining) (human OA cartilage [1]) | GRK2 mRNA expression (RT-qPCR) (human OA cartilage [1]) | GRK2 protein expression (IF staining) (human OA cartilage [1]) | MMP13 mRNA expression (RT-qPCR) (human OA cartilage [1]) | MMP13 protein expression (IF staining) (human OA cartilage [1]) | cAMP production (human OA cartilage [2]) | cAMP levels in the articular cartilage [3, 4] | cAMP levels in the articular cartilage ([3]; daily ip week 8 to 12)
O=C1OC2(c3ccccc31)c1ccc(O)c(O)c1Oc1c2ccc(O)c1O [gallein] | did not achieve statistical significance | attenuated | not affected | reduced | did not achieve statistical significance | attenuated | significant increase | restored | restored
Fc1ccc([C@@H]2CCNC[C@H]2COc2ccc3c(c2)OCO3)cc1 [paroxetine] | significantly inhibited | significantly inhibited | not affected | reduced | significantly inhibited | significantly inhibited | significant increase | restored | restored
